Test results reported in article PMC10669220, “In Vitro α-Glucosidase and α-Amylase Inhibition, Cytotoxicity and Free Radical Scavenging Profiling of the 6-Halogeno and Mixed 6,8-Dihalogenated 2-Aryl-4-methyl-1,2-dihydroquinazoline 3-Oxides” (Antioxidants, 2023).
Like-named read-outs stand apart in the source and are kept apart here.

Key:
[1] = target: T1, α-Glucosidase type 1 from baker's yeast (Saccharomyces cerevisiae, UniProt P53341); test: biochemical; details: mean ± SD, triplicate, tested at 1, 5, 10, 25, 50 µM
T1 construct: purchased Sigma Aldrich (Pty) Ltd. G5003
Procedure: The assay was conducted in triplicate following a method described in our previous study. […] After pre-incubation, 17 µL of 2 mM PNP-G was added. The absorbances were recorded in a 96-well microplate at 400 nm using an Elisa plate reader (Varioskan Flash, ThermoFischer Scientific, Vantaa, Finland). The average values obtained from the readings were used to determine the IC50 and standard deviation values using a GraphPad Prism software (Version 8, GraphPad Software Inc., San Diego, CA, USA). The average values obtained from the absorbance readings were used to determine the IC50 and standard deviation values in GraphPad prism from nonlinear regression dose–response curves.

[2] = target: T2, human α-amylase (Homo sapiens, UniProt P04746); test: α-amylase inhibitor screening kit assay; format: biochemical; details: mean ± SD, triplicate; tested at 1, 5, 10, 25, 50 µM
T2 construct: purchased Abcam ab283391
T2 sequence (P04746 16-511): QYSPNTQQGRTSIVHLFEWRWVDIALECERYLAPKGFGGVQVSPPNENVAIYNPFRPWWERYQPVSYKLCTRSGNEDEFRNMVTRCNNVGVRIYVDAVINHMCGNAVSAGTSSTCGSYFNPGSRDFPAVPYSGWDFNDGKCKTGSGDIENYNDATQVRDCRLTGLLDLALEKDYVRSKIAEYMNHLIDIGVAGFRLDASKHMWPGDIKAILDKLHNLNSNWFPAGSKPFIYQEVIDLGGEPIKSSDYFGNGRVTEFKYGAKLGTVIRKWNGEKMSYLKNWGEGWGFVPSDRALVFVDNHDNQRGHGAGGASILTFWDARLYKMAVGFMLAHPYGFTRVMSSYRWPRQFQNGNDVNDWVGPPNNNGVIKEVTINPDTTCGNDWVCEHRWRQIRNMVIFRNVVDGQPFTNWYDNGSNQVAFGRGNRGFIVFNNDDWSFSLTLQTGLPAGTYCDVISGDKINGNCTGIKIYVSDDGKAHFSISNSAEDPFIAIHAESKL
Procedure: The α-amylase assay was performed in triplicate, using a 96-well plate following the procedure recommended by the manufacturer as outlined in the α-amylase inhibitor Screening Kit (Catalogue No. ab283391; Abcam). […] The average values obtained from the absorbance readings were used to determine the IC50 and standard deviation values in GraphPad prism from nonlinear regression dose–response curves.

[3] = DPPH radical scavenging assay; details: mean ± SD; 45 min in the dark; 512 nm
Procedure: The DPPH radical scavenging assay was conducted following the procedure described in our previous study. The test compounds and ascorbic acid at various concentrations (ranging from 0 µM to 50 µM) in DMSO were mixed with a solution of DPPH (0.20 mM) in methanol and incubated in the dark for 45 min. Five absorbance readings were recorded at 512 nm using an Elisa plate reader (Varioskan Flash, ThermoFisher Scientific, Vantaa, Finland). The experiment was carried out in triplicate, and averaged values from the absorbance readings were used to determine the IC50 and standard deviation values in GraphPad prism from nonlinear regression dose–response curves.

[4] = NO free radical scavenging assay (sodium nitroprusside/Griess); details: mean ± SD; sodium nitroprusside, Griess reagent, 550 nm
Procedure: The assay was conducted following the method described in our previous study. A mixture of 10 mM sodium nitroprusside (20 µL), phosphate buffer (5 µL) and the test compound (5 µL) were incubated at 25 °C in a 96-well plate for 2.5 h. After incubation, 20 µL of Griess reagent (1.00 g of sulfanilic acid + 0.10 g naphthylethylene diamine dihydrochloride) was added to the previous mixture and allowed to stand for 30 min. […] Each experiment was performed in triplicate, and the average was taken. The average obtained from the absorbance readings was used to calculate the IC50 values in GraphPad prism from nonlinear regression dose–response curves.

[5] = test system: lung cancer (A549) cell line; test: MTT cytotoxicity assay, A549; details: for Cell viability percentage, A549: Table S3
Procedure: Cells were cultured in sterile Dulbecco’s Minimal Essential Medium (DMEM, Gibco) supplemented with 10% fetal bovine serum (FBS) and 1% penicillin-streptomycin solution. […] Cell counting was carried out using a handheld automated cell counter (Scapter 3.0™, Merck, Burlington, MA, USA) and seeded (1 × 10^4 cells/well) into a 96-well plate. After 24 h, the cells were treated with different concentrations (1, 5, 10, 25 and 50 µM) of the test compounds and reference standards prepared in DMEM. The MTT solution (20 μL) prepared in PBS (5 mg/mL) was added to all the wells, and the plates were incubated for 4 h, followed by 1 h incubation with 100 µL of dimethyl sulfoxide (DMSO) to dissolve the formazan crystals. Untreated cells and 5% DMSO were included in the experiment as negative controls. All experiments were performed in triplicate. The plates were read at 570 nm at a reference wavelength of 630 nm using an ELISA plate reader (Varioskan Flash, ThermoFisher Scientific, Vantaa, Finland). The percentage of cell viability was calculated using the following formula, Cell viability %=At/Ab×100 where At represents the absorbance value of test compound and Ab the absorbance value of the blank. […] The data were expressed as means ± SD.

[6] = test system: breast cancer (MCF-7) cell line; test: MTT cytotoxicity assay, MCF-7; details: for Cell viability percentage, MCF-7: Table S2
[7] = MTT cytotoxicity assay, HEK293-T; details: human, HEK293-T cells
[8] = test system: human embryonic kidney (HEK293-T) cell line; test: MTT cytotoxicity assay, HEK293-T; details: for IC50: read-out: IC50 Hek293-T; for Cell viability percentage, HEK293-T: Table S4
[9] = Homo sapiens, A549, read-out: IC50 A549
[10] = Homo sapiens, MCF7, read-out: IC50 MCF-7

T1 sequence (P53341 whole entry): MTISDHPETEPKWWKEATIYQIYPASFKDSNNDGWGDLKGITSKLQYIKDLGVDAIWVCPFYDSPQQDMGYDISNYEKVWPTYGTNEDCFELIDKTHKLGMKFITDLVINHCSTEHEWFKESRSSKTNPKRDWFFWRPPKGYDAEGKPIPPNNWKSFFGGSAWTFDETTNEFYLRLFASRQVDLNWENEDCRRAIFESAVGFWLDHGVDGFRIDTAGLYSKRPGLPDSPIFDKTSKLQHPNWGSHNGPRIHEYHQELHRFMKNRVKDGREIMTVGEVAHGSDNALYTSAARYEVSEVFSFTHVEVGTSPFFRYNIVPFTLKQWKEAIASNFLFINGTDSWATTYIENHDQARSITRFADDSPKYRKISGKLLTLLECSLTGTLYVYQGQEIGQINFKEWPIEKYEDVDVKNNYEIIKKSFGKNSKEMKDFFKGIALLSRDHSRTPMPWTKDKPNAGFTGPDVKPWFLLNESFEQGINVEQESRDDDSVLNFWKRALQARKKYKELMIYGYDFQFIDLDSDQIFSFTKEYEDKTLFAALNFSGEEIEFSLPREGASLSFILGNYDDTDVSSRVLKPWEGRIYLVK

SMILES | IC50 ([1]; IC50 α-Glucosidase) [µM] | IC50 [2] [µM] | IC50 [3] [µM] | IC50 [4] [µM] | melting point [°C] | Cell viability percentage, A549 ([5]; Conc. 1 (µM per method)) | Cell viability percentage, A549 ([5]; Conc. 5 (µM per method)) | IC50 [5, 9] [µM] | Cell viability percentage, MCF-7 ([6]; Conc. 1 (µM per method)) | Cell viability percentage, MCF-7 ([6]; Conc. 5 (µM per method)) | Cell viability percentage, MCF-7 ([6]; Conc. 10 (µM per method)) | Cell viability percentage, MCF-7 ([6]; Conc. 25 (µM per method)) | Cell viability percentage, MCF-7 ([6]; Conc. 50 (µM per method)) | IC50 [6, 10] [µM] | viability at 1 µM [7] [%] | viability at 5 µM [7] [%] | viability at 10 µM [7] [%] | viability at 25 µM [7] [%] | viability at 50 µM [7] [%] | IC50 ([8]; Homo sapiens, HEK-293T) [µM] | also measured
CC1=[N+]([O-])C(c2ccccc2)Nc2c(Br)cc(I)cc21 (centres unmarked) [Compound 3m] | 9.14 ± 0.03 | 16.73 ± 0.01 | 8.88 ± 0.011 | 55.39 ± 0.002 | 180 to 181 | 78,1978% | 68,6691% | 16.34 ± 0.06 | 25,998% | 24,1517% | 20,9415% | 20,6088% | 17,6314% | 15.34 ± 0.07 | 81.2 | 75 | 51.1 | 42 | 19.1 | 27.97 ± 0.08 | Cell viability percentage, A549 ([5]; Conc. 10 (µM per method)): 61,413%; Cell viability percentage, A549 ([5]; Conc. 25 (µM per method)): 42,2995%; Cell viability percentage, A549 ([5]; Conc. 50 (µM per method)): 30,0709%
CC1=[N+]([O-])C(c2ccc(Cl)cc2)Nc2c(Br)cc(I)cc21 (centres unmarked) [Compound 3o] | 7.07 ± 0.04 | 49.18 ± 0.01 | 88.45 ± 0.009 | 23.25 ± 0.002 | 140 to 142 | – | – | 20 ± 0.05 | 46,2908% | 41,6001% | 39,6041% | 38,7891% | 23,0428% | 16.5 ± 0.01 | 45.2 | 44.6 | 44.4 | 44.2 | 37.7 | 58.98 ± 0.17 | –
CC1=[N+]([O-])C(c2ccc(F)cc2)Nc2ccc(Br)cc21 (centres unmarked) [Compound 3b] | 7.47 ± 0.05 | 36.35 ± 0.01 | 1.07 ± 0.048 | 15.1 ± 0.029 | 183 to 185 | 69,0066% | 60,8505% | 19.31 ± 0.08 | 39,7538% | 38,34% | 35,1963% | 33,8157% | 30,3061% | 12.8 ± 0.07 | 41.6 | 41.3 | 40.3 | 38.5 | 35.8 | 41.72 ± 0.04 | Cell viability percentage, A549 ([5]; Conc. 10 (µM per method)): 56,1818%; Cell viability percentage, A549 ([5]; Conc. 25 (µM per method)): 42,7495%; Cell viability percentage, A549 ([5]; Conc. 50 (µM per method)): 28,8446%
CC1=[N+]([O-])C(c2ccc(F)cc2)Nc2c(I)cc(Br)cc21 (centres unmarked) [Compound 3j] | 19.69 ± 0.01 | 17.48 ± 0.03 | 61.01 ± 0.053 | 5.17 ± 0.007 | 170 to 173 | 79,064% | 67,1729% | 13.7 ± 0.12 | 60,354% | 53,8289% | 40,413% | 30,7493% | 22,7375% | 15.06 ± 0.01 | 67.6 | 72.8 | 54.5 | 33.9 | 19.4 | 32.83 ± 0.06 | Cell viability percentage, A549 ([5]; Conc. 10 (µM per method)): 57,7455%; Cell viability percentage, A549 ([5]; Conc. 25 (µM per method)): 42,6257%; Cell viability percentage, A549 ([5]; Conc. 50 (µM per method)): 29,7109%
COc1ccc(C2Nc3ccc(Br)cc3C(C)=[N+]2[O-])cc1 (centres unmarked) [Compound 3d] | 68.2 ± 0.01 | 54.08 ± 0.03 | 9.55 ± 0.006 | 24.42 ± 0.004 | 194 to 196 | – | – | 13.45 ± 0.03 | 47,0559% | 46,8729% | 44,0286% | 43,2136% | 38,6394% | 13.68 ± 0.09 | 75.1 | 60.1 | 54.1 | 30.6 | 17.6 | 37.53 ± 0.18 | –
CC1=[N+]([O-])C(c2ccc(Cl)cc2)Nc2c(I)cc(Br)cc21 (centres unmarked) [Compound 3k] | – | 4.46 ± 0.02 | 4.08 ± 0.038 | 15 ± 0.005 | – | 78,5578% | 73,6416% | 15.37 ± 0.13 | 42,1823% | 41,6001% | 39,6041% | 38,7891% | 38,1737% | 16.65 ± 0.05 | 61.3 | 55.4 | 42.5 | 31.6 | 24 | 21.04 ± 0.05 | IC50 ([1]; read-out: IC50 α-Glucosidase): 13.47 ± 0.04 µM; Cell viability percentage, A549 ([5]; Conc. 10 (µM per method)): 60,0068%; Cell viability percentage, A549 ([5]; Conc. 25 (µM per method)): 42,682%; Cell viability percentage, A549 ([5]; Conc. 50 (µM per method)): 32,6808%
CC1=[N+]([O-])C(c2ccc(Cl)cc2)Nc2ccc(I)cc21 (racemic) [Compound 3g] | – | 53.42 ± 0.01 | 26.88 ± 0.043 | 4.25 ± 0.005 | – | 72,7416% | 56,2268% | – | 42,0991% | 37,841% | 36,5769% | 35,8117% | 33,9155% | – | – | – | – | – | – | – | IC50 ([1]; read-out: IC50 α-Glucosidase): 15.08 ± 0.08 µM; Cell viability percentage, A549 ([5]; Conc. 10 (µM per method)): 50,6131%; Cell viability percentage, A549 ([5]; Conc. 25 (µM per method)): 43,0757%; Cell viability percentage, A549 ([5]; Conc. 50 (µM per method)): 33,0296%; IC50 ([5]; read-out: IC50 A549, MTT, mean ± SD, triplicate, 1-50 µM): 18.63 ± 0.11 µM; IC50 ([6]; read-out: IC50 MCF-7, MTT, mean ± SD, triplicate, 1-50 µM): 10.38 ± 0.08 µM; Cell viability percentage, HEK293-T ([8]; Conc. 1 (µM per method)): 63,41%; Cell viability percentage, HEK293-T ([8]; Conc. 5 (µM per method)): 46,5251%; Cell viability percentage, HEK293-T ([8]; Conc. 10 (µM per method)): 41,062%; Cell viability percentage, HEK293-T ([8]; Conc. 25 (µM per method)): 31,41%; Cell viability percentage, HEK293-T ([8]; Conc. 50 (µM per method)): 17,0502%; IC50 ([8]; MTT, normal cell line, mean ± SD, triplicate, 1-50 µM): 21.7 ± 0.13 µM
